The results in this text go back to article PMC4700511 (Biochemistry, 2015).

Converted amounts (≈) assume the structure as drawn.

For data set [1], the system named is E. coli pBC SK(−). Put plainly: MIC by agar dilution, E. coli DH10B with empty pBC SK. In kind it is cell-based. As to conditions: Escherichia coli.
The test system of data set [2] is E. coli DH10B pBCSK(−) producing VIM-2 (228R). The experiment in a line: MIC by agar dilution, E. coli DH10B pBCSK. Format: cell-based. To be noted: Escherichia coli.
Data set [3] has as its system E. coli DH10B pBCSK(−) producing VIM-24 (R228L). The experiment in a line: MIC by agar dilution, E. coli DH10B pBCSK. In kind it is cell-based. As to conditions: Escherichia coli.
The test system of data set [4] is E. coli DH10B pBCSK(−) producing R228K. The experiment in a line: MIC by agar dilution, E. coli DH10B pBCSK. Format: cell-based. As to conditions: Escherichia coli.
The subject of data set [5] is E. coli DH10B pBCSK(−) producing R228P. The experiment in a line: MIC by agar dilution, E. coli DH10B pBCSK. As to conditions: Escherichia coli. Format: cell-based.
The subject of data set [6] is E. coli DH10B pBCSK(−) producing R228M. The experiment in a line: MIC by agar dilution, E. coli DH10B pBCSK. Format: cell-based. As to conditions: Escherichia coli.
The subject of data set [7] is E. coli DH10B pBCSK(−) producing R228Q. The experiment in a line: MIC by agar dilution, E. coli DH10B pBCSK. Format: cell-based. As to conditions: Escherichia coli.
The subject of data set [8] is E. coli DH10B pBCSK(−) producing R228Y. The experiment in a line: MIC by agar dilution, E. coli DH10B pBCSK. To be noted: Escherichia coli. Format: cell-based.
Data set [9] concerns E. coli DH10B pBCSK(−) producing R228X (other variants). Put plainly: MIC by agar dilution, E. coli DH10B pBCSK. Format: cell-based. As to conditions: Escherichia coli, R228X: range of MIC values of the other variants; MHA.
Data set [10] has as its system VIM-24. Format: biochemical, Klebsiella pneumoniae. To be noted: VIM-24 (R228L) vs VIM-2.
Data set [11] has as its target VIM-2 (Escherichia coli, UniProt Q5U7L7). The experiment in a line: Hydrolysis of cefepime and ceftazidime by periplasm preparations, VIM-2. Format: biochemical, P. aeruginosa. As to conditions: VIM-2 periplasmic preparation; 400 μM ceftazidime.
Data set [12] addresses T1, VIM-24 (Escherichia coli, UniProt Q5U7L7, R205L). The experiment in a line: Hydrolysis of cefepime and ceftazidime by periplasm preparations, VIM-24. In kind it is biochemical, Klebsiella pneumoniae. As to conditions: VIM-24 periplasmic preparation; 400 μM ceftazidime.
Data set [13] concerns the target T1, VIM-24. In kind it is biochemical, Klebsiella pneumoniae. As to conditions: VIM-24; substrate hydrolysis, 10 mM HEPES pH 7.5, 25 °C.
Data set [14] relates to VIM-2-producing P. aeruginosa. Put plainly: Imipenem MIC of the clinical isolate, VIM-2-producing P. aeruginosa. Format: cell-based, Pseudomonas aeruginosa.
The test system of data set [15] is VIM-24-producing K. pneumoniae. The experiment in a line: Imipenem MIC of the clinical isolate, VIM-24-producing K. pneumoniae. In kind it is cell-based. As to conditions: Klebsiella pneumoniae, read-out: imipenem MIC, VIM-24-producing K. pneumoniae.
In data set [16] the test system is CC(=O)OCC1=C(C(=O)O)N2C(=O)[C@@H](NC(=O)Cc3cccs3)[C@H]2SC1. Put plainly: purified protein, by the assay type. To be noted: other: VIM-2, substrate hydrolysis, 10 mM HEPES pH 7.5, 25 °C.
For data set [17], the system named is C[C@@H](O)[C@H]1C(=O)N2C(C(=O)O)=C(SCCN=CN)C[C@H]12. The experiment in a line: purified protein, by the assay type. As to conditions: other: VIM-2, substrate hydrolysis, 10 mM HEPES pH 7.5, 25 °C.
For data set [18], the system named is O=C(Cc1cccs1)N[C@@H]1C(=O)N2C(C(=O)O)=C(/C=C/c3ccc([N+](=O)[O-])cc3[N+](=O)[O-])CS[C@H]12. The experiment in a line: purified protein, by the assay type. As to conditions: other: VIM-2, substrate hydrolysis, 10 mM HEPES pH 7.5, 25 °C.

As for `CC(C)(O/N=C(\C(=O)N[C@@H]1C(=O)N2C(C(=O)[O-])=C(C[n+]3ccccc3)CS[C@H]12)c1csc(N)n1)C(=O)O` [ceftazidime], the minimum inhibitory concentration (MIC) in data set [1] (MHA) is 0.06 µg/mL (≈ 0.11 µM); in data set [1] (MHA + 5 μM EDTA), no more than 1 µg/mL; in data set [1] (MHA + 250 μM Zn^2+) it was no more than 1 µg/mL; in data set [2] (MHA), 16 µg/mL (≈ 29.3 µM); in data set [2] (MHA + 5 μM EDTA), 16 µg/mL; in [2] (MHA + 250 μM Zn^2+) it was 32 µg/mL. In addition, the MIC in data set [3] (MHA) is 64 µg/mL (≈ 117 µM); in [3] (MHA + 5 μM EDTA), 32 µg/mL; in data set [3] (MHA + 250 μM Zn^2+), 128 µg/mL; in data set [4] (MHA), 1 µg/mL (≈ 1.83 µM); in data set [4] (MHA + 5 μM EDTA), no more than 1 µg/mL; in [4] (MHA + 250 μM Zn^2+) it was no more than 1 µg/mL. In addition, the MIC in data set [5] (MHA) was 1 µg/mL (≈ 1.83 µM); in [5] (MHA + 5 μM EDTA) it was no more than 1 µg/mL; in data set [5] (MHA + 250 μM Zn^2+), 4 µg/mL; in data set [6] (MHA), 128 µg/mL (≈ 234 µM); in data set [6] (MHA + 5 μM EDTA) it was 64 µg/mL; in [6] (MHA + 250 μM Zn^2+), 256 µg/mL. Further, the minimum inhibitory concentration (MIC) in data set [7] (MHA) came to 128 µg/mL (≈ 234 µM); in [7] (MHA + 5 μM EDTA), 128 µg/mL; in [7] (MHA + 250 μM Zn^2+) it was 512 µg/mL; in data set [8] (MHA), 64 µg/mL (≈ 117 µM); in data set [8] (MHA + 5 μM EDTA), 64 µg/mL; in data set [8] (MHA + 250 μM Zn^2+) it was 128 µg/mL. For the same compound, in [9], the MIC was 16 to 128 µg/mL (≈ 29.3 to 234 µM). Besides, in [10], the “kcat/KM increase of VIM-24 compared to VIM-2” value amounted to 6 fold. The “rate of hydrolysis (initial velocity) in periplasm” value in data set [11] was “measurable rates of hydrolysis were not obtained”; in data set [12], 4e-07 M/s.
Consider `CO/N=C(\C(=O)N[C@@H]1C(=O)N2C(C(=O)O)=C(CSc3nc(=O)c(=O)[nH]n3C)CS[C@H]12)c1csc(N)n1` [ceftriaxone], for which the minimal inhibitory concentration (MIC) in data set [1] (MHA) stood at 0.5 µg/mL (≈ 0.902 µM); in data set [2] (MHA), 8 µg/mL (≈ 14.4 µM); in [3] (MHA), 8 µg/mL (≈ 14.4 µM); in [4] (MHA), 1 µg/mL (≈ 1.8 µM); in data set [5] (MHA) it was 0.5 µg/mL (≈ 0.902 µM); in [6] (MHA), 16 µg/mL (≈ 28.9 µM). In addition, the values for the minimum inhibitory concentration (MIC) in [7] (MHA), in data set [8] (MHA) and in data set [9] were 32 µg/mL (≈ 57.7 µM), 16 µg/mL (≈ 28.9 µM) and 1 to 16 µg/mL (≈ 1.8 to 28.9 µM), respectively.
In the case of `CC(=O)OCC1=C(C(=O)O)N2C(=O)[C@@H](NC(=O)Cc3cccs3)[C@H]2SC1` [cephalothin], the MIC in data set [1] (MHA) came to 8 µg/mL (≈ 20.2 µM); in data set [2] (MHA) it was 256 µg/mL (≈ 646 µM); in data set [3] (MHA), 256 µg/mL (≈ 646 µM); in data set [4] (MHA) it was 16 µg/mL (≈ 40.4 µM); in data set [5] (MHA) it was 16 µg/mL (≈ 40.4 µM); in data set [6] (MHA), 256 µg/mL (≈ 646 µM). Moreover, the MIC is 1020 µg/mL (≈ 2580 µM) in data set [7] (MHA), 256 µg/mL (≈ 646 µM) in [8] (MHA) and 64 to 256 µg/mL (≈ 161 to 646 µM) in [9]. Moreover, in [13], the catalytic constant (kcat) came out at 150 ± 9 s⁻¹.
For `C[C@@H](O)[C@H]1C(=O)N2C(C(=O)O)=C(SCCN=CN)C[C@H]12` [imipenem], the minimum inhibitory concentration (MIC) is 0.25 µg/mL (≈ 0.835 µM) in data set [1] (MHA); no more than 0.125 µg/mL in data set [1] (MHA + 5 μM EDTA); 0.25 µg/mL in [1] (MHA + 250 μM Zn^2+); 0.5 µg/mL (≈ 1.67 µM) in data set [2] (MHA); 0.5 µg/mL in data set [2] (MHA + 5 μM EDTA); 1 µg/mL in data set [2] (MHA + 250 μM Zn^2+). The MIC in data set [3] (MHA) stood at 0.5 µg/mL (≈ 1.67 µM); in data set [3] (MHA + 5 μM EDTA), 0.5 µg/mL; in data set [3] (MHA + 250 μM Zn^2+) it was 1 µg/mL; in [4] (MHA), 0.25 µg/mL (≈ 0.835 µM); in [4] (MHA + 5 μM EDTA) it was 0.25 µg/mL; in [4] (MHA + 250 μM Zn^2+), 0.25 µg/mL. The MIC in data set [5] (MHA) was 0.5 µg/mL (≈ 1.67 µM); in [5] (MHA + 5 μM EDTA), no more than 0.125 µg/mL; in data set [5] (MHA + 250 μM Zn^2+), 0.25 µg/mL; in data set [6] (MHA) it was 2 µg/mL (≈ 6.68 µM); in data set [6] (MHA + 5 μM EDTA) it was 1 µg/mL; in data set [6] (MHA + 250 μM Zn^2+), 4 µg/mL. For the same compound, the minimum inhibitory concentration (MIC) was 4 µg/mL (≈ 13.4 µM) in data set [7] (MHA); 4 µg/mL in [7] (MHA + 5 μM EDTA); greater than 4 µg/mL in data set [7] (MHA + 250 μM Zn^2+); 1 µg/mL (≈ 3.34 µM) in data set [8] (MHA); 1 µg/mL in data set [8] (MHA + 5 μM EDTA); 1 µg/mL in data set [8] (MHA + 250 μM Zn^2+). For the same compound, the MIC in [9] was 0.25 to 1 µg/mL (≈ 0.835 to 3.34 µM); in [14] (Pseudomonas aeruginosa, read-out: imipenem MIC) it was 32 µg/mL; in [15] it was 2 µg/mL. Moreover, the Km in data set [13] came out at 5 ± 0.7 µM. For the same compound, the kcat in [13] is 8.8 ± 0.3 s⁻¹. Besides, the “imipenem MIC” value in data set [14] (VIM-2 harboring P. aeruginosa clinical isolate) worked out at 32 µg/mL.
On to `O=C(Cc1cccs1)N[C@@H]1C(=O)N2C(C(=O)O)=C(/C=C/c3ccc([N+](=O)[O-])cc3[N+](=O)[O-])CS[C@H]12` [nitrocefin], for which the kcat in data set [13] came to 171 ± 4 s⁻¹.
For the compound VIM-2 (Escherichia coli), in data set [16], the Km was 17 ± 2 µM, the kcat was 168 ± 8 s⁻¹ and the kcat/Km is 9.8e+06 M⁻¹ s⁻¹. Besides, in [17], the Km came to 12 ± 1 µM, the turnover number (kcat) turned out to be 45 ± 1 s⁻¹ and the kcat/Km amounted to 3.6e+06 M⁻¹ s⁻¹. For the same compound, in data set [18], the Km came out at 13 ± 1 µM, the kcat worked out at 430 ± 20 s⁻¹ and the kcat/Km was 3.3e+07 M⁻¹ s⁻¹.
